Source: US20250197428A1, “INHIBITORS OF KIF18A AND USES THEREOF” (ACCENT THERAPEUTICS, INC., priority 2022, published 2025)
Read-outs that look alike come from different tables or passages of the source.

Assays:
[1] = Caco-2 permeation assay, bidirectional permeability; format: in vitro ADME; details: human, Caco-2, pH 7.4, 5 μM, Papp(B-A)/Papp(A-B)
Protocol: 1. Caco-2 Permeation Assay: Evaluation of the Bidirectional Permeabilities of Compounds.
Samples were analyzed through LC/MS/MS for estimating the apparent permeability coefficients (Papp) of compounds across Caco-2 cell monolayers. Caco-2 cells (American Type Culture Collection) were incubated and seeded onto HTS Transwell-96 Well Permeable Supports (Corning Corporation) for 14 days using a cell medium consisting of Dulbecco's Modified Eagle's Medium (DMEM) with high glucose and L-glutamine supplemented with 10% FBS, 1× penicillin-streptomycin mixture and 1×non-essential amino acids (NEAA). Cell monolayer integrity was measured using an automated tissue resistance measuring system (World Precision Instruments). Stock solutions of compounds and control compounds in DMSO were diluted with HBSS (10 mM HEPES, pH 7.4) to reach a final concentration of 5 μM with a final concentration of DMSO <0.1%. HBSS was then removed after 30 minutes of preincubation, and 75 μL of test compound was added to the apical compartment of the Transwell insert. The basolateral compartment was filled with 235 μL of HBSS (10 mM HEPES, pH 7.4) containing 2% BSA. Rate of drug transport in the basolateral to apical direction was obtained by adding 235 μL of test compound to the receiver plate wells (basolateral compartment) and filling with 75 μL of HBSS (10 mM HEPES, pH 7.4) containing 2% BSA. Time 0 samples were prepared by transferring 25 μL of 5 μM working solution to wells of the 96-deepwell plate containing 25 μL HBSS (10 mM HEPES and 2% BSA, pH 7.4), followed by the addition 200 μL of cold methanol containing appropriate internal standards (100 nM alprazolam, 200 nM labetalol, 200 nM caffeine and 200 nM diclofenac). After incubating at 37° C. for 2 h, 25 μL samples from donor sides (apical compartment) were transferred to a 96-well plate containing 25 μL HBSS (10 mM HEPES and 2% BSA, pH 7.4). 25 μL samples from receiver sides (basolateral compartment) were removed and transferred to a new plate containing 25 μL HBSS (10 mM HEPES, pH 7.4). 200 μL of cold methanol containing internal standards (100 nM alprazolam, 200 nM labetalol, 200 nM caffeine and 200 nM diclofenac) was added to terminate the reaction. Samples were vortexed for 5 minutes and then centrifuged at 3,220 g for 40 minutes. An aliquot of 100 μL of the supernatant is mixed with 100 μL of ultra-pure water for LC-MS/MS analysis. All incubations are performed in duplicate. Solutions were discarded from the transwell plate. 100 μL Lucifer Yellow solution (100 μM in HBSS) was added to each well of transwell insert and 300 μL of HBSS to each well of receiver. After incubating at 37° C. for 30 minutes, 80 μL was aliquotted from each well of apical and basolateral sides to a solid black plate. The plate was then read with Tecan Infinite™ M 200 (Excitation/Emission wavelength […]).
All calculations were carried out using Microsoft Excel. Peak areas were determined from extracted ion chromatograms. The leakage of Lucifer Yellow, in unit of percentage (%), can be calculated using the following equation: […]
LY leakage of <1% is acceptable to indicate the well-qualified Caco-2 monolayers. The apparent permeability coefficient (Papp), in units of centimeter per second, can be calculated for Caco-2 drug transport assays using the following equation: […]
Where VA is the volume (in mL) in the receiver well (0.235 mL for Ap→Bl flux and 0.075 mL for Bl→Ap flux), Area is the surface area of the membrane (0.143 cm^2 for HTS Transwell-96 Well Permeable Supports), and time is the total transport time in seconds. The efflux ratio can be determined using the following equation: […]
Where Papp (B-A) indicates the apparent permeability coefficient in basolateral to apical direction, and Papp (A-B) indicates the apparent permeability coefficient in apical to basolateral direction.
The recovery can be determined using the following equation: […]

[2] = biological target: KIF18A (Homo sapiens (Human), UniProt Q8NI77); assay: KIF18A Biochemical Assay (ATPase, ADP-Glo)
Chain of KIF18A (Q8NI77 1-367): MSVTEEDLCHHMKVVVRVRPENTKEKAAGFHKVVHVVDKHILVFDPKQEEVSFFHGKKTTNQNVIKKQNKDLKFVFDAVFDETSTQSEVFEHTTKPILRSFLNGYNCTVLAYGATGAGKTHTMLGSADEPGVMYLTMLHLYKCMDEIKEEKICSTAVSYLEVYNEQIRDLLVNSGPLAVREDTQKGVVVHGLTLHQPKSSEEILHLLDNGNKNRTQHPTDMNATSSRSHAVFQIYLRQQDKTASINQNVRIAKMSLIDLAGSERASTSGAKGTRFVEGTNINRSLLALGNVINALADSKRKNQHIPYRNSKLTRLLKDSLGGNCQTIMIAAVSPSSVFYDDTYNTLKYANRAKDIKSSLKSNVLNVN
Chain of KIF18A (P02550 whole entry partner): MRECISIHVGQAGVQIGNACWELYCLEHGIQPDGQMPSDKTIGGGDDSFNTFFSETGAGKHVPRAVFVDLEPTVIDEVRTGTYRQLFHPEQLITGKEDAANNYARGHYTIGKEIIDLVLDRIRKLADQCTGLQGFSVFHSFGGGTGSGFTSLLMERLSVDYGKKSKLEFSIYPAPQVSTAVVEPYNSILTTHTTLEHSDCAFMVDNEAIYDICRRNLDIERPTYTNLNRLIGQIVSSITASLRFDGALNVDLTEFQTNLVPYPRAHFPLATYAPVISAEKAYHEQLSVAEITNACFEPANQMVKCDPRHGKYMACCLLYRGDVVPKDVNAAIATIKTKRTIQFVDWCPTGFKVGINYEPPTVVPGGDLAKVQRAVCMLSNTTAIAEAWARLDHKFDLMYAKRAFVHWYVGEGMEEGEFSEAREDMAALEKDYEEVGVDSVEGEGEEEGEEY
Chain of KIF18A (P02554 whole entry partner): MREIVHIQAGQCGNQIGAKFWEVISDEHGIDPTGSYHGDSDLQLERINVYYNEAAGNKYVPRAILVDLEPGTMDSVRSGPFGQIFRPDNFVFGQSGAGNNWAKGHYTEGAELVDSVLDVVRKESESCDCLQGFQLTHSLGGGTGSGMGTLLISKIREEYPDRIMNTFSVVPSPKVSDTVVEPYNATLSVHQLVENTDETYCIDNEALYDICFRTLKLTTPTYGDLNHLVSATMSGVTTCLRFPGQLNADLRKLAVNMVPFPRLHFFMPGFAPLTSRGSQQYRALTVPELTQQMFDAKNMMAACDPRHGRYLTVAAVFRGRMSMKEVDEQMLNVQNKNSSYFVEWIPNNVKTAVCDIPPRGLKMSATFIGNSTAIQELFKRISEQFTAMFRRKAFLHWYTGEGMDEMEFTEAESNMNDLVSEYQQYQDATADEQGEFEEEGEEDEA

[3] = test system: OVCAR-3 cells; assay: In vitro anti-proliferative activity assay in cancer cell line OVCAR-3 (CellTiter-Glo, 4- or 7-day); format: cell-based; details: Homo sapiens, read-out: OVCAR-3 cellular antiproliferation assay IC50

Structure (SMILES)	efflux ratio at 2 h, 5 μM [1]	IC50 [2]	IC50 ([3]; OVCAR-3, 168 h, 7-day assay)	IC50 ([3]; OVCAR-3, 96 h, 4-day assay)
O=C(Nc1ccnc(N2CCC(F)(F)CC2)n1)c1ccc(NS(=O)(=O)CCO)cc1N1CC[C@]2(C(F)F)C[C@@H]2C1 [Example 60]	≥ 10	< 100 nM	< 100 nM	
O=C(Nc1cccc(N2CCC(F)(F)CC2)n1)c1ccc(NS(=O)(=O)CCO)cc1N1CC[C@@]2(C(F)F)C[C@H]2C1 [Example 66]	< 10	< 100 nM	< 100 nM	
O=C(Nc1ccnc(N2CCC(F)(F)CC2)n1)c1c(F)cc(NS(=O)(=O)CCO)cc1N1CC[C@@]2(C(F)F)C[C@H]2C1 [Example 70]	≥ 10	< 100 nM	< 100 nM	
Cc1cc(NC(=O)c2c(F)cc(NS(=O)(=O)CCO)cc2N2CC[C@@]3(C(F)F)C[C@H]3C2)nc(N2CCC(F)(F)CC2)n1 [Example 72]	≥ 10	< 100 nM	100 to 500 nM	
O=C(Nc1ccnc(C2CCC(F)(F)CC2)n1)c1ccc(NS(=O)(=O)CCO)cc1N1CC[C@]2(C(F)F)C[C@@H]2C1 [Example 75]	< 10	< 100 nM	< 100 nM	
Cc1cc(NC(=O)c2ccc(S(=O)(=O)NCCO)cc2N2CC[C@@]3(C(F)F)C[C@H]3C2)nc(N2CCC(F)(F)CC2)n1 [Example 78]	< 10	< 100 nM	100 to 500 nM	
O=C(Nc1cccc(N2CCC(F)(F)CC2)n1)c1c(F)cc(NS(=O)(=O)CCO)cc1N1CC[C@@]2(C(F)F)C[C@H]2C1 [Example 84]	< 10	< 100 nM	100 to 500 nM	
C[Si]1(C)CCN(c2cc(NS(=O)(=O)CCO)ccc2NC(=O)c2ccnc(OCCC(F)(F)F)n2)CC1 [Example 88]	< 10	100 to 500 nM	500 to 1000 nM	
CC(C)(C)NS(=O)(=O)c1cccc(NC(=O)c2ccc(NS(=O)(=O)CCO)cc2N2CC[Si](C)(C)CC2)n1 [Example 98]	< 10	< 100 nM		< 100 nM
C[Si]1(C)CCN(c2cc(NS(=O)(=O)CCN)ccc2C(=O)Nc2cccc(N3CCC(F)(F)CC3)n2)CC1 [Example 100]	< 10	< 100 nM	100 to 500 nM	
Cc1cc(NC(=O)c2ccc(NS(=O)(=O)CCO)cc2N2CC[Si](C)(C)CC2)nc(N2CCOC3(CC3)C2)n1 [Example 102]	≥ 10	< 100 nM	< 100 nM	
CC(=O)NCCS(=O)(=O)Nc1ccc(C(=O)Nc2cccc(N3CCC(F)(F)CC3)n2)c(N2CC[Si](C)(C)CC2)c1 [Example 104]	< 10	< 100 nM	100 to 500 nM	
Cc1cc(NC(=O)c2cnc(NS(=O)(=O)CCO)cc2N2CC[Si](C)(C)CC2)nc(N2CCC(F)(F)CC2)n1 [Example 106]	< 10	< 100 nM	< 100 nM	
C[Si]1(C)CCN(c2cc(NS(=O)(=O)CCO)ccc2C(=O)Nc2cncc(N3CCC(F)(F)CC3)n2)CC1 [Example 108]	< 10	< 100 nM	< 100 nM	
Cc1cc(NC(=O)c2ccc(NS(=O)(=O)CCO)nc2N2CC[Si](C)(C)CC2)nc(N2CCC(F)(F)CC2)n1 [Example 109]	< 10	< 100 nM	500 to 1000 nM	
Cc1cc(NC(=O)c2c(F)cc(NS(=O)(=O)CCO)cc2N2CC[Si](C)(C)CC2)nc(N2CCC(F)(F)CC2)n1 [Example 110]	< 10	< 100 nM	< 100 nM	
Cc1cc(NC(=O)c2ccc(NS(=O)(=O)[C@H](C)CO)cc2N2CC[Si](C)(C)CC2)nc(N2CCC(F)(F)CC2)n1 [Example 111]	≥ 10	< 100 nM	< 100 nM	
Cc1cc(NC(=O)c2ccc(NS(=O)(=O)[C@@H](C)CO)cc2N2CC[Si](C)(C)CC2)nc(N2CCC(F)(F)CC2)n1 [Example 112]	≥ 10	< 100 nM	100 to 500 nM	
CC(CO)S(=O)(=O)Nc1ccc(C(=O)Nc2cccc(OCCC(F)(F)F)n2)c(N2CC[Si](C)(C)CC2)c1 (stereo not drawn) [Example 113]	< 10	< 100 nM	100 to 500 nM	
Cc1cc(NC(=O)c2ccc(NS(=O)(=O)CCO)cc2N2CC[Si](C)(C)CC2)nc(N2CCOC(F)(F)C2)n1 [Example 115]	≥ 10	< 100 nM	100 to 500 nM	
Cc1cc(NC(=O)c2ccc(NS(=O)(=O)NCCO)cc2N2CC[Si](C)(C)CC2)nc(N2CCC(F)(F)CC2)n1 [Example 117]	< 10	100 to 500 nM	100 to 500 nM	
CNS(=O)(=O)Nc1ccc(C(=O)Nc2cc(C)nc(C3CCC(F)(F)CC3)n2)c(N2CC[Si](C)(C)CC2)c1 [Example 118]	< 10	< 100 nM	100 to 500 nM	
C[Si]1(C)CCN(c2cc(NS(=O)(=O)CCO)ccc2C(=O)Nc2cccc(OCC(O)C(F)(F)F)n2)CC1 (stereo not drawn) [Example 119]	< 10	< 100 nM	< 100 nM	
C[Si]1(C)CCN(c2cc(S(=N)(=O)C3CC3)ccc2C(=O)Nc2cccc(N3CCC(F)(F)CC3)n2)CC1 (stereo not drawn) [Example 120]	< 10	< 100 nM	< 100 nM	
C[Si]1(C)CCN(c2cc(NS(=O)(=O)CCO)ccc2C(=O)Nc2cccc(OC[C@@H](O)C(F)(F)F)n2)CC1 [Example 121]	< 10	< 100 nM	< 100 nM	
C[Si]1(C)CCN(c2cc(NS(C)(=O)=O)ccc2C(=O)Nc2cccc(OC[C@@H](O)C(F)(F)F)n2)CC1 [Example 127]	< 10	< 100 nM	< 100 nM	
Cc1cc(NC(=O)c2ccc(NS(=O)(=O)N(C)CCO)cc2N2CC[Si](C)(C)CC2)nc(N2CCC(F)(F)CC2)n1 [Example 134]	< 10	< 100 nM	100 to 500 nM	
